According to ChEMBL document CHEMBL1932968, “Cyclic amino acid linkers stabilizing key loops of brain derived neurotrophic factor” (Bioorg Med Chem Lett, 2012):
Activity calls are given as the source filed them. No cut-off for these calls is given here. *1 amine or outer side, *2 acyl side, *3 side chain or, on linkers, in order; H or OH if unused. Where a SMILES comes first, the peptide text is derived from it. [ ]: non-standard residue; d: D form. ACHC(1S,2S) = O=C([C@H]1CCCC[C@@H]1N[*:1])[*:2]; X2 = C[C@@]1(C(=O)[*:2])CCN1[*:1]; X1 = C[C@]1(C(=O)[*:2])CCN1[*:1]; Aze = O=C(O)[C@@H]1CCN1; βAla = NCCC(=O)O

Columns and labels:
[1] = biological target: BDNF/NT-3 growth factors receptor (Rattus norvegicus) (UniProt Q63604); test: Agonist activity at TrkB in E18 Sprague-Dawley rat hippocampal neurons assessed as induction of TrkB autophosphorylation at Tyr490 at 100 uM after 1 hr by Western blotting analysis; type: functional, tissue-based; settings: Hippocampus
BDNF/NT-3 growth factors receptor (Rattus norvegicus), sequence (Q63604 whole entry): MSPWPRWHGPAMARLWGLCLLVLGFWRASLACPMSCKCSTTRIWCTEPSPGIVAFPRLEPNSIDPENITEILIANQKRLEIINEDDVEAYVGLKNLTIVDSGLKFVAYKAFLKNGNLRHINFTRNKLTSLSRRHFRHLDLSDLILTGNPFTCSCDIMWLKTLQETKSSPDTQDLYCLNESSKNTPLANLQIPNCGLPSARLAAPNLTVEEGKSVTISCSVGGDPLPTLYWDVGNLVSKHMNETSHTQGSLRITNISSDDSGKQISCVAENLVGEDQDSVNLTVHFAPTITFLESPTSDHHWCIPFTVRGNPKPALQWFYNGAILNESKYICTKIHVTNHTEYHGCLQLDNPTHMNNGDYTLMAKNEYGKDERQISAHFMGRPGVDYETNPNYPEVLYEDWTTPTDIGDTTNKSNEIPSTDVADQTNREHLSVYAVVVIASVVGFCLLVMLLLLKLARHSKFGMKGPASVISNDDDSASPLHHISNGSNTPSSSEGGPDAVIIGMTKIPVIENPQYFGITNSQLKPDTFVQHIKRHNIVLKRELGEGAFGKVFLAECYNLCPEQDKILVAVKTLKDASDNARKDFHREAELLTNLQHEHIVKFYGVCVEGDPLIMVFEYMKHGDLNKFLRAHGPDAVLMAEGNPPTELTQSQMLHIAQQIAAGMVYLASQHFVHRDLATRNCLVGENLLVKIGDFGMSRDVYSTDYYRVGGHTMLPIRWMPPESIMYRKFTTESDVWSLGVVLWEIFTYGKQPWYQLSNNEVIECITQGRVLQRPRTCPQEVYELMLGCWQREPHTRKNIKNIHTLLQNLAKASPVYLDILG

[2] = biological target: BDNF/NT-3 growth factors receptor (Rattus norvegicus) (UniProt Q63604); test: Antagonist activity at TrkB in E18 Sprague-Dawley rat hippocampal neurons assessed as inhibition of BDNF-induced TrkB phosphorylation at Tyr490 at 100 uM preincubated for 1 hr followed by BDNF induction for 10 mins by Western blotting analysis; type: functional, tissue-based; settings: Hippocampus

Activity [1] | inhibition [2] | SMILES
inactive | inactive | CC(C)[C@@H]1NC(=O)[C@]2(C)CCN2C(=O)CCNC(=O)[C@H](CCCCN)NC(=O)[C@H](CO)NC1=O
inactive | – | CC(C)[C@@H]1NC(=O)[C@@H]2CCN2C(=O)CNC(=O)[C@H](CCCCN)NC(=O)[C@H](CO)NC(=O)[C@H](C(C)C)NC(=O)[C@@H]2CCN2C(=O)CNC(=O)[C@H](CCCCN)NC(=O)[C@H](CO)NC1=O (cyclo([Aze]VSKG[Aze]VSKG))
inactive | inactive | CC(C)[C@@H]1NC(=O)[C@H]2CCCC[C@@H]2NC(=O)CCNC(=O)[C@H](CCCCN)NC(=O)[C@H](CO)NC1=O
inactive | inactive | CC(C)[C@@H]1NC(=O)[C@H]2CCCC[C@@H]2NC(=O)CNC(=O)[C@H](CCCCN)NC(=O)[C@H](CO)NC1=O (cyclo(G[ACHC(1S,2S)]VSK))
inactive | – | CC(C)[C@@H]1NC(=O)[C@H]2CCCC[C@@H]2NC(=O)CCNC(=O)[C@H](CCCCN)NC(=O)[C@H](CO)NC(=O)[C@H](C(C)C)NC(=O)[C@H]2CCCC[C@@H]2NC(=O)CCNC(=O)[C@H](CCCCN)NC(=O)[C@H](CO)NC1=O (cyclo(K[βAla][ACHC(1S,2S)]VSK[βAla][ACHC(1S,2S)]VS))
inactive | Active | N=C(N)NCCC[C@@H]1NC(=O)[C@H](CCCCN)NC(=O)[C@H](CCCCN)NC(=O)[C@H](CO)NC(=O)[C@H](CC(=O)O)NC(=O)[C@H]2CCCC[C@@H]2NC1=O (cyclo(DSKKR[ACHC(1S,2S)]))
inactive | inactive | CC(C)[C@@H]1NC(=O)[C@@H]2CCN2C(=O)CCNC(=O)[C@H](CCCCN)NC(=O)[C@H](CO)NC1=O (cyclo([Aze]VSK[βAla]))
inactive | – | CC(C)[C@@H]1NC(=O)[C@H]2CCCC[C@@H]2NC(=O)CNC(=O)[C@H](CCCCN)NC(=O)[C@H](CO)NC(=O)[C@H](C(C)C)NC(=O)[C@H]2CCCC[C@@H]2NC(=O)CNC(=O)[C@H](CCCCN)NC(=O)[C@H](CO)NC1=O (cyclo(G[ACHC(1S,2S)]VSKG[ACHC(1S,2S)]VSK))
inactive | Active | CC(C)[C@@H]1NC(=O)[C@]2(C)CCN2C(=O)CNC(=O)[C@H](CCCCN)NC(=O)[C@H](CO)NC(=O)[C@H](C(C)C)NC(=O)[C@@]2(C)CCN2C(=O)CNC(=O)[C@H](CCCCN)NC(=O)[C@H](CO)NC1=O (cyclo(G[X1]VSKG[X2]VSK))
inactive | inactive | CC(C)[C@@H]1NC(=O)[C@@]2(C)CCN2C(=O)CCNC(=O)[C@H](CCCCN)NC(=O)[C@H](CO)NC1=O
inactive | Active | N=C(N)NCCC[C@@H]1NC(=O)[C@H]2CCCC[C@@H]2NC(=O)[C@H](CC(=O)O)NC(=O)[C@H](CO)NC(=O)[C@H](CCCCN)NC(=O)[C@H](CCCCN)NC(=O)[C@H](CCCNC(=N)N)NC(=O)[C@H]2CCCC[C@@H]2NC(=O)[C@H](CC(=O)O)NC(=O)[C@H](CO)NC(=O)[C@H](CCCCN)NC(=O)[C@H](CCCCN)NC1=O (cyclo(D[ACHC(1S,2S)]RKKSD[ACHC(1S,2S)]RKKS))
inactive | inactive | CC(C)[C@@H]1NC(=O)[C@@H]2CCN2C(=O)CNC(=O)[C@H](CCCCN)NC(=O)[C@H](CO)NC1=O (cyclo([Aze]VSKG))
inactive | inactive | CC(C)[C@@H]1NC(=O)C2(C)CCN2C(=O)CNC(=O)[C@H](CCCCN)NC(=O)[C@H](CO)NC1=O (mixture of isomers)
